The compounds below were run on H4 (assay: Induction of autophagy in human H4 cells expressing LC3 using DAPI staining after 4 hrs by fluorescence microscopic analysis). Conditions: H4, 4 h.
Format: functional, cell-based
`N#CC(CCCN1CCC2(CC1)C(=O)NCN2c1ccccc1)(c1ccccc1)c1ccccc1` was tested, and the EC50 was 14.8 µM. `O=C1NCN(c2ccccc2)C12CCN(CCCN(c1ccccc1)c1ccccc1)CC2` showed an EC50 of 24.9 µM. `O=C1NCN(c2ccccc2)C12CCN(CCC=C(c1ccc(F)cc1)c1ccc(F)cc1)CC2` showed an EC50 of 6.2 µM. For `O=C(CCC(c1ccc(F)cc1)c1ccc(F)cc1)N1CCC2(CC1)C(=O)NCN2c1ccccc1`, the EC50 was greater than 50 µM. In the case of `O=C1NCN(c2ccccc2)C12CCN(CCCC(O)c1ccc(F)cc1)CC2` (stereo unspecified), the EC50 is reported as greater than 50 µM. Work on `O=C1NCN(c2ccccc2)C12CCN(CC/C=C\c1ccc(F)cc1)CC2` yielded an EC50 greater than 50 µM. With `O=C1NCN(c2ccccc2)C12CCN(CCCCC(c1ccc(F)cc1)c1ccc(F)cc1)CC2` the EC50 was 4.7 µM. Compound `O=C1NCN(c2ccccc2)C12CCN(CCC(c1ccc(F)cc1)c1ccc(F)cc1)CC2` has an EC50 of 2.1 µM. `O=C1NCN(c2ccccc2)C12CCN(CCCC(c1ccccc1)c1ccccc1)CC2` showed an EC50 of 34.6 µM. With `O=C1NCN(c2ccccc2)C12CCN(CCCC(c1ccc(Cl)cc1)c1ccc(Cl)cc1)CC2` the EC50 was 4.2 µM. Compound `O=C1NCN(c2ccccc2)C12CCN(CCCC(c1ccc(C(F)(F)F)cc1)c1ccc(C(F)(F)F)cc1)CC2` has an EC50 of 3.7 µM. `Cc1ccc(C(CCCN2CCC3(CC2)C(=O)NCN3c2ccccc2)c2ccc(C)cc2)cc1` gave an EC50 of 3.1 µM. With `COc1ccc(C(CCCN2CCC3(CC2)C(=O)NCN3c2ccccc2)c2ccc(OC)cc2)cc1` the EC50 was 4.6 µM. `OC1(c2ccc(Cl)c(C(F)(F)F)c2)CCN(CCCC(c2ccc(OC(F)(F)F)cc2)c2ccc(OC(F)(F)F)cc2)CC1` gave an EC50 of 0.97 µM. In the case of `OC1(c2ccc(Cl)c(C(F)(F)F)c2)CCN(CCCC(c2cccc(F)c2)c2cccc(F)c2)CC1`, the EC50 is reported as 2.2 µM. Work on `OC1(c2ccc(Cl)c(C(F)(F)F)c2)CCN(CCCC(c2cccc(C(F)(F)F)c2)c2cccc(C(F)(F)F)c2)CC1` yielded an EC50 of 0.65 µM. `Cc1cccc(C(CCCN2CCC(O)(c3ccc(Cl)c(C(F)(F)F)c3)CC2)c2cccc(C)c2)c1` showed an EC50 of 0.29 µM. `O=C1NCN(c2ccccc2)C12CCN(C1c3ccccc3Sc3ccccc31)CC2` showed an EC50 greater than 50 µM. `OC1(c2ccc(C(F)(F)F)c(Cl)c2)CCN(C2c3ccccc3-c3ccccc32)CC1` was tested, and the EC50 was 2.6 µM. `OC1(c2ccc(C(F)(F)F)c(Cl)c2)CCN(C2c3ccccc3Sc3ccccc32)CC1` gave an EC50 of 14.4 µM. `OC1(c2ccc(C(F)(F)F)c(Cl)c2)CCN(C2c3ccccc3CCc3ccccc32)CC1` was tested, and the EC50 was 2.6 µM. `CN1CCN(CCCC(c2ccc(F)cc2)c2ccc(F)cc2)CC1` was tested, and the EC50 was greater than 50 µM. `OCCN1CCN(CCCC(c2ccc(F)cc2)c2ccc(F)cc2)CC1` showed an EC50 greater than 50 µM. With `Fc1ccc(C(CCCN2CCN(c3ccc(Cl)cc3)CC2)c2ccc(F)cc2)cc1` the EC50 was greater than 50 µM. With `Fc1ccc(C(CCCN2CCOCC2)c2ccc(F)cc2)cc1` the EC50 was greater than 50 µM. With `Cc1ccc(C2=CCN(CCCC(c3ccc(F)cc3)c3ccc(F)cc3)CC2)cc1` the EC50 was greater than 50 µM. In the case of `Cc1ccc(C2CCN(CCCC(c3ccc(F)cc3)c3ccc(F)cc3)CC2)cc1`, the EC50 is reported as greater than 50 µM. For `Cc1ccc(C2(O)CCN(CCCC(c3ccc(F)cc3)c3ccc(F)cc3)CC2)cc1`, the EC50 was 6.4 µM. `CC(=O)OC1(c2ccc(C)cc2)CCN(CCCC(c2ccc(F)cc2)c2ccc(F)cc2)CC1` showed an EC50 of 4.4 µM. `CC(=O)NC1(c2ccc(C)cc2)CCN(CCCC(c2ccc(F)cc2)c2ccc(F)cc2)CC1` was tested, and the EC50 was 2.2 µM. For `N#CC1(c2ccccc2)CCN(CCCC(c2ccc(F)cc2)c2ccc(F)cc2)CC1`, the EC50 was 10.5 µM. Work on `OC1(c2ccc(Cl)c(C(F)(F)F)c2)CCN(CCC=C(c2ccc(F)cc2)c2ccc(F)cc2)CC1` yielded an EC50 of 4.3 µM. Work on `O=C(CCC(c1ccc(F)cc1)c1ccc(F)cc1)N1CCC(O)(c2ccc(Cl)c(C(F)(F)F)c2)CC1` yielded an EC50 greater than 50 µM. Compound `OC1(c2ccc(Cl)c(C(F)(F)F)c2)CCN(CCCCC(c2ccc(F)cc2)c2ccc(F)cc2)CC1` has an EC50 of 2.7 µM. Compound `OC1(c2ccc(Cl)c(C(F)(F)F)c2)CCN(CCC(c2ccc(F)cc2)c2ccc(F)cc2)CC1` has an EC50 of 4.5 µM. `OC1(c2ccc(Cl)c(C(F)(F)F)c2)CCN(CCCC(c2ccccc2)c2ccccc2)CC1` gave an EC50 of 5.1 µM. `OC1(c2ccc(Cl)c(C(F)(F)F)c2)CCN(CCCC(c2ccc(Cl)cc2)c2ccc(Cl)cc2)CC1` was tested, and the EC50 was 2.4 µM. In the case of `OC1(c2ccc(Cl)c(C(F)(F)F)c2)CCN(CCCC(c2ccc(C(F)(F)F)cc2)c2ccc(C(F)(F)F)cc2)CC1`, the EC50 is reported as 0.28 µM. `Cc1ccc(C(CCCN2CCC(O)(c3ccc(Cl)c(C(F)(F)F)c3)CC2)c2ccc(C)cc2)cc1` was tested, and the EC50 was 0.29 µM. Work on `COc1ccc(C(CCCN2CCC(O)(c3ccc(Cl)c(C(F)(F)F)c3)CC2)c2ccc(OC)cc2)cc1` yielded an EC50 of 1.2 µM. Work on `O=C1NCN(c2ccccc2)C12CCN(C1c3ccccc3-c3ccccc31)CC2` yielded an EC50 of 7.9 µM. With `O=C1NCN(c2ccccc2)C12CCN(C1c3ccccc3CCc3ccccc31)CC2` the EC50 was 5.1 µM. For `N#CC(CCCN1CCC(O)(c2ccc(Cl)c(C(F)(F)F)c2)CC1)(c1ccccc1)c1ccccc1`, the EC50 was 3.2 µM. `O=C1NCN(c2ccccc2)C12CCN(CCCCc1ccc(F)cc1)CC2` gave an EC50 greater than 50 µM. `O=C1NCN(c2ccccc2)C12CCN(CCCC(c1ccc(F)cc1)c1ccc(F)cc1)CC2` [FLUSPIRILENE] gave an EC50 of 2.4 µM. With `OC1(c2ccc(Cl)c(C(F)(F)F)c2)CCN(CCCC(c2ccc(F)cc2)c2ccc(F)cc2)CC1` [PENFLURIDOL] the EC50 was 3.2 µM.
